Reference: patent US12116358B2, “Substituted indoles and methods of use thereof” (EPIZYME, INC., priority 2018, dated 2024)
Read-outs that look alike come from different tables or passages of the source.

Tests used:
H3K36me3 in A549 cells = assay: In-Cell Western (ICW) assay of SETD2 inhibitors (A549 assay); format: cell-based, human; conditions: A549 cells, read-out: SETD2 A549
How it was run: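 A549 cells seeded at 4,000/well onto compound and incubated 3 days at 37° C. Methanol-fixed cells stained overnight at 4° C with anti-H3K36me3 (1:1000), then IRDye 800CW secondary with DRAQ5 DNA counterstain. Plates read by Licor imaging at 700 and 800 channels.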

SETD2(1434-1711) = biological target: T1, SETD2(1434-1711) (Homo sapiens, UniProt Q9BYW2); assay: SETD2 (1434-1711) assay; format: biochemical; conditions: read-out: SETD2 (1434-1711)
T1 construct: SETD2 (1434-1711) Assay; catalogue N/A
T1 sequence (Q9BYW2 1434-1711): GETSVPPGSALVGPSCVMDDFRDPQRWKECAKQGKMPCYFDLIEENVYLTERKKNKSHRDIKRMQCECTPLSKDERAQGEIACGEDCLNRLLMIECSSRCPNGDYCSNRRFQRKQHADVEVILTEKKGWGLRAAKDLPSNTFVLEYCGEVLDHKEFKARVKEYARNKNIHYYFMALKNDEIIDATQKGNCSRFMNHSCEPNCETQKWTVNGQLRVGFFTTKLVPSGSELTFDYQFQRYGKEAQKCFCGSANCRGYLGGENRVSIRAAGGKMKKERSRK

| SMILES | IC50 (H3K36me3 in A549 cells) [nM] | IC50 (SETD2(1434-1711)) [nM] | IC50 (H3K36me3 in A549 cells; Homo sapiens) [nM] |
| --- | --- | --- | --- |
| CCC(=O)N1CCN([C@H]2CCC[C@@H](NC(=O)c3cc4c(F)ccc(C)c4[nH]3)C2)CC1 [compound 839] | 40 | 10 | – |
| CCC(=O)N1CCN([C@@H]2CCC[C@@H](NC(=O)c3cc4c(F)ccc(C)c4[nH]3)C2)CC1 [compound 840] | > 2000 | 900 | – |
| COCCN(C(C)=O)C1CCN(C2CCCC(NC(=O)c3cc4c(F)ccc(C)c4[nH]3)C2)C1 (centres unmarked) [compound 843] | 800 | 200 | – |
| COCCN(C(C)=O)C1CCN(C2CCCC(NC(=O)c3cc4c(F)ccc(C)c4[nH]3)C2)C1 (centres unmarked) [compound 844] | > 2000 | 8500 | – |
| COCC(=O)N1CCN([C@H]2CCC[C@@H](NC(=O)c3cc4c(F)ccc(C)c4[nH]3)C2)CC1 [compound 846] | 100 | 20 | – |
| COCC(=O)N1CCN([C@@H]2CCC[C@@H](NC(=O)c3cc4c(F)ccc(C)c4[nH]3)C2)CC1 [compound 847] | > 2000 | 1000 | – |
| Cc1ccc(F)c2cc(C(=O)NC3CCCC(N4CCn5ccnc5C4)C3)[nH]c12 (centres unmarked) [compound 852] | 1000 | 100 | – |
| Cc1ccc(F)c2cc(C(=O)N[C@@H]3CCC[C@H](N4CCN(C(=O)CN(C)C)CC4)C3)[nH]c12 [compound 854] | 500 | 20 | – |
| Cc1ccc(F)c2cc(C(=O)N[C@@H]3CCC[C@@H](N4CCN(C(=O)CN(C)C)CC4)C3)[nH]c12 [compound 855] | > 2000 | 4700 | – |
| CC(=O)N1CCN([C@H]2CCC[C@@H](NC(=O)c3cc4cccc(C)c4[nH]3)C2)CC1 [compound 856] | 300 | 200 | – |
| CC(=O)N1CCN([C@@H]2CCC[C@@H](NC(=O)c3cc4cccc(C)c4[nH]3)C2)CC1 [compound 857] | > 2000 | 7400 | – |
| CNC(=O)CN1CCN(C2CCC[C@@H](NC(=O)c3cc4c(F)ccc(C)c4[nH]3)C2)CC1 (some centres unmarked) [compound 858] | > 2000 | 400 | – |
| Cc1ccc(F)c2cc(C(=O)N[C@@H]3CCCC(N4CCN(CC(=O)N(C)C)CC4)C3)[nH]c12 (some centres unmarked) [compound 859] | 1900 | 500 | – |
| Cc1ccc(F)c2cc(C(=O)NC3CCCC(N4CCn5cnnc5C4)C3)[nH]c12 (centres unmarked) [compound 860] | 1600 | 100 | – |
| Cc1ccc(F)c2cc(C(=O)N[C@@H]3CCC[C@@H](N4CCn5cnnc5C4)C3)[nH]c12 [compound 861] | > 2000 | 1900 | – |
| CC(=O)N(C(C)C)C1CCN(C2CCC[C@@H](NC(=O)c3cc4c(F)ccc(C)c4[nH]3)C2)C1 (some centres unmarked) [compound 862] | > 2000 | 400 | – |
| Cc1ccc(F)c2cc(C(=O)NC3CCCC(N4CCN5C(=O)OCC5C4)C3)[nH]c12 (centres unmarked) [compound 865] | 100 | 30 | – |
| Cc1ccc(F)c2cc(C(=O)N[C@@H]3CCC[C@@H](N4CCN5C(=O)OCC5C4)C3)[nH]c12 (some centres unmarked) [compound 866] | – | 900 | > 2000 |
| CC(=O)N1CCC(N2CCCCC(NC(=O)c3cc4c(F)ccc(C)c4[nH]3)C2)CC1 (centres unmarked) [compound 867] | – | 400 | > 2000 |
| Cc1ccc(F)c2cc(C(=O)NC3CCCC(N4CCn5ncnc5C4)C3)[nH]c12 (centres unmarked) [compound 868] | 200 | 100 | – |
| Cc1ccc(F)c2cc(C(=O)N[C@@H]3CCC[C@@H](N4CCn5ncnc5C4)C3)[nH]c12 [compound 869] | > 2000 | 6600 | – |
| Cc1ccc(F)c2cc(C(=O)N[C@@H]3CCC[C@H](N4CCN(C(=O)CO)CC4)C3)[nH]c12 [compound 870] | – | 10 | 40 |
| CC(=O)N(CCO)C1CCN([C@H]2CCC[C@@H](NC(=O)c3cc4c(F)ccc(C)c4[nH]3)C2)C1 (some centres unmarked) [compound 872] | – | 100 | 1200 |
| CC(=O)N(CCO)C1CCN([C@@H]2CCC[C@@H](NC(=O)c3cc4c(F)ccc(C)c4[nH]3)C2)C1 (some centres unmarked) [compound 873] | – | 1100 | > 2000 |
| Cc1ccc(F)c2cc(C(=O)N[C@@H]3CCCC(N4CCC5(CCNC5=O)CC4)C3)[nH]c12 (some centres unmarked) [compound 874] | – | 400 | > 2000 |
| CCOC(=O)N1CCC(N2CCC[C@@H](NC(=O)c3cc4c(F)ccc(C)c4[nH]3)C2)CC1 [compound 875] | – | 700 | > 2000 |
| CCOC(=O)N1CCC(N2CCC[C@H](NC(=O)c3cc4c(F)ccc(C)c4[nH]3)C2)CC1 [compound 876] | – | > 10000 | > 2000 |
| CC(=O)N1CCN(CC2CCCN(C(=O)c3cc4c(F)ccc(C)c4[nH]3)C2)CC1 (centres unmarked) [compound 877] | – | > 10000 | > 2000 |
| COCC(=O)N(C)C1CCN([C@H]2CCC[C@@H](NC(=O)c3cc4c(F)ccc(C)c4[nH]3)C2)C1 (some centres unmarked) [compound 880] | – | 20 | 100 |
| Cc1ccc(F)c2cc(C(=O)N[C@@H]3CCC[C@H](N4CCCC5(CCNC5=O)C4)C3)[nH]c12 (some centres unmarked) [compound 882] | – | 100 | 700 |

The next lines start with the values.

| IC50 (H3K36me3 in A549 cells) [nM] | IC50 (SETD2(1434-1711)) [nM] | IC50 (H3K36me3 in A549 cells; Homo sapiens) [nM] | SMILES |
| --- | --- | --- | --- |
| – | 100 | 200 | Cc1ccc(F)c2cc(C(=O)N[C@@H]3CCC[C@H](N4CCN(C)C(=O)C4C)C3)[nH]c12 (some centres unmarked) [compound 884] |
| – | 7600 | > 2000 | Cc1ccc(F)c2cc(C(=O)N[C@@H]3CCC[C@@H](N4CCN(C)C(=O)C4C)C3)[nH]c12 (some centres unmarked) [compound 885] |
| – | 8900 | > 2000 | CC(=O)N1CCN(C(=O)C2CCCN(C(=O)c3cc4c(F)ccc(C)c4[nH]3)C2)CC1 (centres unmarked) [compound 886] |
| – | 100 | 300 | Cc1ccc(F)c2cc(C(=O)N[C@@H]3CCC[C@H](N4CCCN(C)C(=O)C4)C3)[nH]c12 [compound 887] |
| – | 2500 | > 2000 | CC(=O)N1CC2(C1)CN([C@@H]1CCC[C@@H](NC(=O)c3cc4c(F)ccc(C)c4[nH]3)C1)C2 [compound 889] |
| – | 100 | > 2000 | Cc1ccc(F)c2cc(C(=O)N[C@@H]3CCCC(N4CCC5(CC4)CNC(=O)N5)C3)[nH]c12 (some centres unmarked) [compound 890] |
| – | 900 | > 2000 | Cc1ccc(F)c2cc(C(=O)N[C@@H]3CCCN(C4CCN(C(=O)CN(C)C)CC4)C3)[nH]c12 [compound 891] |
| – | > 10000 | > 2000 | Cc1ccc(F)c2cc(C(=O)N[C@H]3CCCN(C4CCN(C(=O)CN(C)C)CC4)C3)[nH]c12 [compound 892] |
| – | 100 | 900 | Cc1ccc(F)c2cc(C(=O)N[C@@H]3CCCC(N4CCNC(=O)CC4)C3)[nH]c12 (some centres unmarked) [compound 893] |
| – | 30 | 1400 | Cc1ccc(F)c2cc(C(=O)N[C@@H]3CCCC(N4CCC5(CCC(=O)N5)CC4)C3)[nH]c12 (some centres unmarked) [compound 894] |
| – | 50 | 1500 | Cc1ccc(F)c2cc(C(=O)NC3CCCC(N4CCC5(CC4)COC(=O)N5)C3)[nH]c12 (centres unmarked) [compound 895] |
| – | 100 | 1800 | Cc1ccc(F)c2cc(C(=O)N[C@@H]3CCCC(N4CCC5(CC4)CNC(=O)C5)C3)[nH]c12 (some centres unmarked) [compound 896] |
| – | 10 | 100 | Cc1ccc(F)c2cc(C(=O)N[C@@H]3CCC[C@H](N4CC5(CNC(=O)C5)C4)C3)[nH]c12 [compound 897] |
| – | 4300 | > 2000 | Cc1ccc(F)c2cc(C(=O)N[C@@H]3CCC[C@@H](N4CC5(CNC(=O)C5)C4)C3)[nH]c12 [compound 898] |
| – | 4200 | > 2000 | Cc1ccc(F)c2cc(C(=O)N[C@@H]3CCC[C@@H](c4cccnc4)C3)[nH]c12 [compound 902] |
| – | 40 | 300 | Cc1ccc(F)c2cc(C(=O)N[C@@H]3CCC[C@H](c4cccnc4)C3)[nH]c12 [compound 903] |
| – | 8100 | > 2000 | Cc1ccc(F)c2cc(C(=O)N[C@H]3CCC[C@H](c4cccnc4)C3)[nH]c12 [compound 904] |
| – | 2900 | > 2000 | Cc1ccc(F)c2cc(C(=O)N[C@H]3CCC[C@@H](c4cccnc4)C3)[nH]c12 [compound 905] |
| – | 10 | 10 | CC(=O)N1CCN([C@H]2CCC[C@@H](NC(=O)c3cc4c(F)ccc(C)c4[nH]3)C2)CC1C (some centres unmarked) [compound 906] |
